We go through 13 compounds from ChEMBL document CHEMBL1141451, “Crotonkinins A and B and related diterpenoids from Croton tonkinensis as anti-inflammatory and antitumor agents” (J Nat Prod, 2007).

The subject of test [1] is KB. Nature of the test: Cytotoxicity against human KB cells. The class given is functional, cell-based.
A short description of test [2]: Cytotoxicity against human KB-VIN cells. The class given is functional, cell-based. The settings on record: KBVIN.
The subject of test [3] is MCF7. Nature of the test: Cytotoxicity against human MCF7 cells. Format: functional, cell-based.
Test [4] relates to A549. Nature of the test: Cytotoxicity against human A549 cells. The class given is functional, cell-based.
Test [5] is described as follows: Inhibition of NADPH oxidase in mouse BV2 cells assessed as NOX-dependent ROS production. The following applies: BV-2.
Test [6] has as its system BV-2. Nature of the test: Inhibition of NADPH oxidase in mouse BV2 cells assessed as NOX-dependent ROS production at 50 uM. The class given is cell-based.
Test [7] can be described thus: Inhibition of nitric oxide synthase in mouse BV2 cells assessed as inhibition of LPS-induced NO production. Format: cell-based. The following applies: BV-2.
The test system of test [8] is A549. Nature of the test: Cytotoxicity against human A549 cells at 20 ug/ml. Format: functional.
Test [9] in a line: Cytotoxicity against human KB-VIN cells at 20 ug/ml. Format: functional. The following applies: KBVIN.
In test [10] the test system is KB. Nature of the test: Cytotoxicity against human KB cells at 20 ug/ml. Format: functional.
Test [11] deals with MCF7. Nature of the test: Cytotoxicity against human MCF7 cells at 20 ug/ml. Format: functional.

Converted amounts (≈) assume the structure as drawn.

As to `C=C1C(=O)[C@@]23CC[C@@H]4[C@@](C)(COC(C)=O)CCC[C@@]4(C)[C@@H]2CC[C@@H]1C3`, the half-maximal effective concentration (EC50) (as a rule, the concentration that produces a half-maximal response) came to 3.75 µg/mL (≈ 10.9 µM) in [1], 2.84 µg/mL (≈ 8.24 µM) in test [2], 6.11 µg/mL (≈ 17.7 µM) in [3] and 6.56 µg/mL (≈ 19 µM) in test [4].
Take `c1ccc2c(c1)[I+]c1ccccc1-2` [DIPHENYLENEIODONIUM]: the concentration for half-maximal inhibition (IC50) – broadly, the concentration at which inhibition is half-maximal – in test [5] came out at 16 µM. Further, the inhibition (as a rule, the share of the control response that was lost under treatment) in test [6] came out at 94.3%.
Regarding `C=C1C(=O)[C@@]23[C@H](O)C[C@@H]4C(C)(C)CCC[C@@]4(C)[C@@H]2CC[C@@H]1[C@H]3O`, in test [7], the IC50 worked out at 1.2 µM. For the same compound, the inhibition in test [6] was determined as 29.4%. Besides, the EC50 in test [1] was 0.64 µg/mL (≈ 2.01 µM); in test [2], 0.63 µg/mL (≈ 1.98 µM); in test [3], 0.75 µg/mL (≈ 2.36 µM); in test [4] it was 1.45 µg/mL (≈ 4.55 µM).
`C=C1C(=O)[C@@]23[C@H](O)C[C@@H]4[C@@](C)(COC(C)=O)CCC[C@@]4(C)[C@@H]2CC[C@@H]1[C@H]3O`: the EC50 in [1] was determined as 0.93 µg/mL (≈ 2.47 µM); in [2] it was 0.88 µg/mL (≈ 2.34 µM); in [3], 1.98 µg/mL (≈ 5.26 µM); in test [4] it was 2.78 µg/mL (≈ 7.38 µM).
Take `C=C1C(=O)[C@]23C[C@H]1CC[C@H]2[C@]1(C)CCC[C@](C)(COC(C)=O)[C@H]1C[C@H]3O`: the IC50 in test [7] amounted to 1.3 µM. In addition, in test [6], the inhibition was determined as 24.8%. Also, the EC50 in test [1] turned out to be 0.71 µg/mL (≈ 1.97 µM); in test [2] it was 0.61 µg/mL (≈ 1.69 µM); in test [3], 0.65 µg/mL (≈ 1.8 µM); in test [4], 1.26 µg/mL (≈ 3.5 µM).
On to `C=C1C(=O)[C@@]23[C@H](O)C[C@@H]4C(C)(C)CC[C@@H](OC(C)=O)[C@@]4(C)[C@@H]2CC[C@@H]1[C@H]3O`, for which, in test [7], the IC50 is 1.3 µM. Also, the inhibition in test [6] was found to be 29.4%. The 50% effective concentration (EC50) in test [1] came to 0.91 µg/mL (≈ 2.42 µM); in [2], 0.78 µg/mL (≈ 2.07 µM); in test [3] it was 0.94 µg/mL (≈ 2.5 µM); in test [4], 3.03 µg/mL (≈ 8.05 µM).
Regarding `C=C1C(=O)[C@]23C[C@H]1CC[C@H]2[C@]1(C)CCCC(C)(C)[C@H]1C[C@H]3O`, the IC50 in test [7] turned out to be 4 µM. The inhibition in test [6] amounted to 23.1%. Further, the 50% effective concentration (EC50) in test [1] was found to be 0.79 µg/mL (≈ 2.61 µM); in test [2], 0.74 µg/mL (≈ 2.45 µM); in test [3] it was 1.47 µg/mL (≈ 4.86 µM); in test [4], 4.77 µg/mL (≈ 15.8 µM).
`CC(=O)OC[C@@]1(C)CCC[C@]2(C)[C@@H]1C[C@H](O)[C@@]13C[C@@H](CC[C@@H]21)[C@H](C)C3=O`: the inhibition at 20 µg/mL in [8], in test [9], in test [10] and in [11] was below 50% in each case. Moreover, the IC50 in [7] came to 42.5 µM. Moreover, the inhibition in test [6] was 9.5%.
For the compound `C=C1C(=O)[C@@]23CC[C@H]4[C@@](C)(CCC[C@]4(C)C(=O)O)[C@@H]2CC[C@@H]1C3`, the IC50 in [7] was 2.6 µM. The inhibition in test [6] was determined as 14.2%. Moreover, the concentration for a half-maximal effect (EC50) in [1] was found to be 1.04 µg/mL (≈ 3.29 µM); in [2], 1.08 µg/mL (≈ 3.41 µM); in [3] it was 2.69 µg/mL (≈ 8.5 µM); in test [4], 3.91 µg/mL (≈ 12.4 µM).
With `C=C1C[C@]23C(=O)C[C@H]4C(C)(C)CCC[C@]4(C)[C@H]2CC[C@H]1[C@@H]3O` [CROTONKININ A], the inhibition at 20 µg/mL in test [8], in test [9], in [10] and in test [11] was below 50% in each case. For the same compound, the half-inhibitory concentration (IC50) in [7] turned out to be 46.2 µM. For the same compound, the inhibition in test [6] was 11.2%.
Turning to `COC(=O)[C@@H](N)CCCNC(=N)N[N+](=O)[O-]` [L-NAME], the IC50 in test [7] amounted to 20.1 µM.
As to `C=C1C(=O)[C@@]23CC[C@@H]4[C@@](C)(CO)CCC[C@@]4(C)[C@@H]2CC[C@@H]1C3`, the half-maximal effective concentration (EC50) worked out at 1.47 µg/mL (≈ 4.86 µM) in [1], 1.31 µg/mL (≈ 4.33 µM) in [2], 4.31 µg/mL (≈ 14.2 µM) in test [3] and 6.52 µg/mL (≈ 21.6 µM) in [4].
In the case of `C=C1C(=O)[C@]23C[C@H]1CC[C@H]2[C@]1(C)CCC[C@](C)(CO)[C@H]1C[C@H]3O`, in [7], the IC50 came to 1.4 µM. The inhibition in [6] amounted to 20.6%. Besides, the EC50 worked out at 0.87 µg/mL (≈ 2.73 µM) in test [1], 0.82 µg/mL (≈ 2.57 µM) in test [2], 0.98 µg/mL (≈ 3.08 µM) in test [3] and 3.96 µg/mL (≈ 12.4 µM) in [4].
